Experimental data published in patent US9598387B2 (Southern Research Institute, priority 2012, dated 2017).

Columns and labels:
[1] = biological target: human D2-long dopamine receptor (Homo sapiens (Human), UniProt P14416); assay: Radioligand binding (125I-IABN competition), D2; conditions: HEK cell membranes expressing human D2-long
Description: The affinities of the target compounds were determined using radioligand binding experiments. […] Competition curves were modeled for a single site. Data from competition dose-response curves were analyzed using Tablecurve program (Jandel). IC50 values were converted to equilibrium dissociation constants (Ki values) using the Cheng and Prusoff correction.

[2] = biological target: human D2 receptors (Homo sapiens (Human), UniProt P14416); assay: D2 Mitogenesis Functional Assay (3H-thymidine uptake, CHOp-D2 cells); format: cell-based; conditions: inhibition of quinpirole (30 nM final) stimulation of mitogenesis; read-out: D2 Antagonist IC50
human D2 receptors, sequence (P14416 whole entry): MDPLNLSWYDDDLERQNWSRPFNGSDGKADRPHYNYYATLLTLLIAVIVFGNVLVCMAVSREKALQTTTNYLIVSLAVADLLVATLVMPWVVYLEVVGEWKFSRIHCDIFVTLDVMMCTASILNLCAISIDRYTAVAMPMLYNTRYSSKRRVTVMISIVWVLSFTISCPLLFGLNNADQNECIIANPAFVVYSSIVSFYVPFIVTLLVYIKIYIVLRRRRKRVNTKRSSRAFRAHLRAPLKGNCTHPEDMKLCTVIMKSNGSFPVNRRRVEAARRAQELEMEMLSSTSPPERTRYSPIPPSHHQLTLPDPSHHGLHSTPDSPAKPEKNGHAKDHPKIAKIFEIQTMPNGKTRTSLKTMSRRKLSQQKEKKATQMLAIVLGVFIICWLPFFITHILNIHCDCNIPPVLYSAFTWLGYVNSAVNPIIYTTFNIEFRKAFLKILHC

[3] = biological target: D2LR (Homo sapiens (Human), UniProt P14416); assay: β-Arrestin Recruitment Assay, CHO-K1 DRD2L; format: cell-based; conditions: antagonist vs EC80 6 nM Pergolide, CHO-K1 DRD2L cells; read-out: D2 IC50
D2LR, sequence (P14416 whole entry): as above
Description: Antagonist potency of the compounds against agonist induced recruitment of β-arrestin by D3R and D2LR was measured using DiscoverRx PathHunter eXpress kits. […] After incubation at 37° C. for 90 min, the DiscoveRx detection reagent was added, the plates were incubated at room temperature for 60 min and the luminescence was measured on a Synergy 4 plate reader (BioTek). The data were plotted and the agonist EC80 values were calculated using GraphPad Prism software. For antagonist activity, the cells were plated as described above and treated with multiple concentrations (starting from 500 nM, half log dilution, 10 dose points) of the test compounds in Plating Reagent with 0.1% DMSO.

[4] = biological target: human D2L receptors (Homo sapiens (Human), UniProt P14416); assay: [35S]GTPγS Binding Assay, CHO D2 membranes; format: biochemical; conditions: antagonist vs dopamine; Ke = functional Ki; read-out: CHO-hD2 Ke
human D2L receptors, sequence (P14416 whole entry): as above
Description: Chinese hamster ovary (CHO) cells expressing human D2L and D3 receptors served as the source for membrane fractions which were washed and resuspended with assay buffer containing Mg^2+, Na^+, EGTA, and bovine serum albumin. The GTPγS binding assays were performed in a final volume of 0.5 mL for CHO D2 and 1 mL for CHO D3 containing test drug or dopamine (1 mM for D2 cells, and 100 μM for D3 cells) as indicator of binding plateau, [^35S]GTPγS (0.11 nM for CHO D2 and 0.07 nM for CHO D3, 1,250 Ci/mmole, Perkin Elmer, Boston, Mass. 02118); and cell membrane suspension (in assay buffer and GDP for final concentration of 3 μM for CHO D2 and 6 μM for CHO D3). […] The plateau binding (maximal binding stimulation) with test compound was expressed as percent of maximal binding observed with the full agonist dopamine (% Emax). Antagonist activity was assessed by testing a fixed concentration of the test compound and varying concentration of the agonist, dopamine (0.001-100 μM for CHO D2 and 0.1 nM-10 uM for CHO D3). Ke is the functional Ki (equilibrium dissociation constant) of an antagonist and is calculated according to the equation: [Test Compound]/(EC50-2/EC50-1−1), where EC50-2 is the EC50 value in the presence of the test compound and EC50-1 is the value in the absence of the test compound.

[5] = system: Long Evans rats; assay: Food self-administration under PR schedule of reinforcement; format: in vivo, rat; conditions: 3.75 mg dose vs 0; t(7)=0.43, p=0.66
Description: These studies were performed using Long Evans rats using standard protocols. Training and testing took place in ventilated and sound-attenuated operant chambers measuring 30×21×18 cm. Each chamber contained two levers, one light above each of the levers, and a food trough. Each lever was positioned 2.5 cm from the rod floor and the food trough (measuring 5×5 cm) was centered between the two levers. A different set of animals (n=8) was trained to press a lever reinforced by food under a FR1 schedule of reinforcement. […] Percentage of baseline BPs for food self-administration was analyzed using a dependent measures t-test comparing the 0 and 3.75 mg doses of 113.

[6] = system: Long Evans rats; assay: Cocaine-induced locomotor activity; format: in vivo, rat; conditions: 3.75, 7.5 or 15 mg/kg 10 minutes before 10 mg/kg cocaine; p<0.05
Description: These studies were performed using Long Evans rats using standard protocols. Locomotor activity chambers measuring 43×43×30 cm (l×w×h) were used for the locomotor activity experiments. Each chamber was equipped with eight photo-emitters positioned along the length of the chamber 6 cm above the floor, each paired directly opposite a photocell. Locomotor activity counts were registered when adjacent beams were broken consecutively. Before receiving any drug, the animals (n=96) were placed in locomotor activity chambers for habituation, for 2 hours per day for 3 consecutive days. Based on the locomotor activity score obtained during the third habituation session, animals were assigned into one of […] treatment groups. […] For the 113 alone experiments, each of the four groups received one of 4 doses of 113 (0, 3.75, 7.5 or 15 mg/kg) 10 minutes prior to placement in the activity chambers. For the 113 cocaine interaction experiments, each of 4 groups were injected with one of the 4 doses of the compound (0, 3.75, 7.5 or 15 mg/kg) 10 minutes before receiving 10 mg/kg of cocaine as the second injection. […] The locomotor counts in the 113 alone and 113/cocaine experiments were analyzed using two separate mixed-design ANOVAs with 113 dose (between-groups) and 5-min bins (repeated measures) as factors. […]

human D2-long dopamine receptor, sequence (P14416 whole entry): as above

CC(C)(C)c1nc(N2CCN(CCCCNC(=O)c3cn4ccccc4n3)CC2)cc(C(F)(F)F)n1 [Compound 113, N-(4-(4-(2-(tert-Butyl)-6-(trifluoromethyl)pyrimidin-4-yl)piperazin-1-yl)butyl)imidazo[1,2-a]pyridine-2-carboxamide]
Ki [1]: 511 ± 65.6 nM
IC50 [2]: 2300 ± 1100 nM
IC50 [3]: 261 ± 54 nM
Ki [4]: 111 ± 25 nM
percentage of baseline BPs for food self-administration under PR schedule [5]: did not affect food self-administration
cocaine-induced locomotor activity [6]: significantly reduce cocaine-induced locomotor activity in a dose-related fashion
